One block for each compound: values may come before it.
How the values were obtained:
PDE2 = molecular target: T1, PDE2 (Bos taurus, UniProt P14099); experiment: PDE assay, PDE2 enzyme solution from bovine adrenal gland; type: biochemical, Japanese Black Cattle
T1 construct: tissue Tokyo Shibaura Zoki; host or cells: bovine adrenal gland, soluble fraction, ion-exchange fractions
T1 sequence (P14099 1-921): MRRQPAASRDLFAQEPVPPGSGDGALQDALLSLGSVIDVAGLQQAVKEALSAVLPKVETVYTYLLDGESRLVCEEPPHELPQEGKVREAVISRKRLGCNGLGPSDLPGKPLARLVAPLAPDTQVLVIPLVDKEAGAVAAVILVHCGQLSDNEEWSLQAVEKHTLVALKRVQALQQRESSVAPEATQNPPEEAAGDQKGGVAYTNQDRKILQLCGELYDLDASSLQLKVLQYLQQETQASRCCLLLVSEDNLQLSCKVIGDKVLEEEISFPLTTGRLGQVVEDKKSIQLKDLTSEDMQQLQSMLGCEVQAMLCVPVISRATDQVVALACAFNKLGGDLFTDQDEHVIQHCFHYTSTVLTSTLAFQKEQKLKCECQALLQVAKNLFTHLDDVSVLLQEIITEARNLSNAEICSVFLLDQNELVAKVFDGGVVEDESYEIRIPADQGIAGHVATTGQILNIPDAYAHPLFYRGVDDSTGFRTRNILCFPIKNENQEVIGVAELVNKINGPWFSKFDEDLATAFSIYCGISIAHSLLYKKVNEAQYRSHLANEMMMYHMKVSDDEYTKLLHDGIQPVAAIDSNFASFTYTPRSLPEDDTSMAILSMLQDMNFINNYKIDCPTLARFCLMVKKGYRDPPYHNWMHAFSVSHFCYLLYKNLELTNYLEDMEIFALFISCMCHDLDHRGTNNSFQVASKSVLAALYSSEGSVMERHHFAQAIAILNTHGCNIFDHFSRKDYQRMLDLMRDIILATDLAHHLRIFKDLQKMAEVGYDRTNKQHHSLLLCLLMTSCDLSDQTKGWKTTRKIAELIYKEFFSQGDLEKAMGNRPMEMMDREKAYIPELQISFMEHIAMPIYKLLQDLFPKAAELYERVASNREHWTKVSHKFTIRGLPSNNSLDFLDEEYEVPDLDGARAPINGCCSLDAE
Experimental: One adrenal gland of Japanese Black Cattle, purchased from Tokyo Shibaura Zoki, co., Ltd. was washed with 100 ml of ice-cold saline (0.9% sodium chloride) twice. Subsequently, the tissues were cut into about 1 gram, and it was frozen by liquid nitrogen. To about 2 g of this tissue sample was added 10 ml of an ice-cold homogenization buffer II (25 mM Tris-HCl, pH 7.5, 4 mM magnesium chloride, 0.5 mM EGTA, 2 mM dithiothreitol, 4 mM benzamidine, 0.1 mM phenylmethylsulfonyl fluoride), and the homogenate that was homogenized by Polytron homogenizer for 3 minutes was centrifuged at 8000 rpm, at 4° C. for 20 minutes, and the obtained supernatant was further centrifuged by an ultracentrifuge at 50000 rpm, at 4° C. for 60 minutes. The resultant supernatant was stored at 4° C.
(§1) This supernatant was applied to chromatography under the FPLC system, in the same manner as in Example 1 (1) above. […]
Subsequently, the eluted fractions were used as an enzyme solution for PDE assay, and cGMP-hydrolyzing activity was measured. Or, cAMP-hydrolyzing activity was measured for respective fractions, in the presence or absence of unlabeled cGMP. […]

PDE3 = molecular target: T2, PDE3 (Canis lupus familiaris, UniProt A0A8I3NYE0); experiment: PDE assay, PDE3 enzyme solution from dog ventricle; type: biochemical, mixed-breed dog
T2 sequence (A0A8I3NYE0 1-1135): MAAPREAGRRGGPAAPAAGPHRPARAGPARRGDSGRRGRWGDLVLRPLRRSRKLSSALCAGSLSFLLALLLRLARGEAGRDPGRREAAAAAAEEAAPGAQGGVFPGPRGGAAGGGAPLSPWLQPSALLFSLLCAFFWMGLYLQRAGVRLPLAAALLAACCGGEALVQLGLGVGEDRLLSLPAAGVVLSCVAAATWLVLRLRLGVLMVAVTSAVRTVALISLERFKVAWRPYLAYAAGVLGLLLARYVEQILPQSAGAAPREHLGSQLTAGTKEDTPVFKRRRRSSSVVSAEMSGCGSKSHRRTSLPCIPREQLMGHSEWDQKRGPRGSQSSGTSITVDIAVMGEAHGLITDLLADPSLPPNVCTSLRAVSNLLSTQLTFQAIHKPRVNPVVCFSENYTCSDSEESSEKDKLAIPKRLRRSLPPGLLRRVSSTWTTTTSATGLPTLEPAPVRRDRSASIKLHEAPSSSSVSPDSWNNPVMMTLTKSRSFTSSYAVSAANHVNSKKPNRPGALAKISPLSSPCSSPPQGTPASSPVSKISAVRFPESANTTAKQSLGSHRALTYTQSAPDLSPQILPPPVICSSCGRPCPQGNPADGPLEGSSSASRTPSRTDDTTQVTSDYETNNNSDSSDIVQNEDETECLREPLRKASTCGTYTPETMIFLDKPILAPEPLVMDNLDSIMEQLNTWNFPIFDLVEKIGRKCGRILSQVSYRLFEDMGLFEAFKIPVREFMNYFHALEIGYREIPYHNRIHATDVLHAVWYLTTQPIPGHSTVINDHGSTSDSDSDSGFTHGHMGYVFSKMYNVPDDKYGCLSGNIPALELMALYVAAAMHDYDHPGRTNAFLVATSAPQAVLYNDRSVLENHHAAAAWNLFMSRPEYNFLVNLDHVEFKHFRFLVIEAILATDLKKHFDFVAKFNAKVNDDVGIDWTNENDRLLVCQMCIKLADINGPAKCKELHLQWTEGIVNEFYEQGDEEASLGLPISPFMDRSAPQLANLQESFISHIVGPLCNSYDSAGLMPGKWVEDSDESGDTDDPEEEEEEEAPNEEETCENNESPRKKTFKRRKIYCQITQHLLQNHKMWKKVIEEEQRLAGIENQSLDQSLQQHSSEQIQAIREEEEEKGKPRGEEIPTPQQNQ
Experimental: Apex portion of ventricle of mixed-breed dog (Oriental Yeast) was excised, and washed with 500 ml of ice-cold saline three times. Subsequently, the tissues were cut into about 3 g, and it was frozen by liquid nitrogen, and stored at −80° C. To about 1 g of this tissue sample was added 10 ml of an ice-cold homogenization buffer II, and the resultant mixture was homogenized by Polytron homogenizer for 3 minutes. The homogenate was centrifuged at 8000 rpm, at 4° C. for 20 minutes, and the obtained supernatant was further centrifuged by an ultracentrifuge at 40000 rpm, at 4° C. for 60 minutes. The resultant supernatant was stored at 4° C.
as §1
Subsequently, the eluted fractions were used as an enzyme solution for PDE assay, and cGMP-hydrolyzing activity was measured. Further, cAMP-hydrolyzing activity was measured for respective fractions, in the presence or absence of unlabeled cGMP. […]

PDE1 = experiment: PDE assay, PDE1 enzyme solution from rat ventricle; type: biochemical, SD rat; details: E4021 100 nM
Experimental: Ventricle was excised from SD rat anesthetized with sodium pentobarbital (Nihon SLC, about 300 g), and washed with 100 ml of ice-cold saline 3 times. After the tissues were cut in approximately 1 g, it was frozen by liquid nitrogen, and stored at −80° C.
To about 5 g of this tissue sample was added 16 ml of an ice-cold homogenization buffer I, and the resultant mixture was homogenized by Polytron homogenizer for 3 minutes. The homogenate was centrifuged at 8000 rpm, at 4° C. for 20 minutes, and the obtained supernatant was further centrifuged by an ultracentrifuge at 50000 rpm, at 4° C. for 60 minutes. The resultant supernatant was stored at 4° C. […]
Subsequently, the eluted fractions were used as an enzyme solution for PDE assay. […] (final concentration of 1 mM) or calcium chloride (final concentration of 2 mM) and calmodulin (40 unit s/ml), and cGMP-hydrolyzing activity was measured.
For these PDE1 containing fractions, cGMP hydrolyzing activities were analyzed in the presence of E4021 (100 nM), PDE5 specific inhibitor, it was shown that the cGMP-hydrolyzing activities in these fractions were not inhibited by E4021. […]
Further, in the presence or absence of unlabeled cGMP, cAMP-PDE activities were measured for each of the fractions. […]
Still further, in the presence of rolipram (10 μm), the PDE4 specific inhibitor, cAMP hydrolyzing activities were measured for each of the fractions. […]

PDE5 = molecular target: T3, PDE5 (Canis lupus familiaris, UniProt O77746); experiment: PDE assay, PDE5 enzyme solution from canine lung; type: biochemical
T3 construct: These were used as a PDE5 enzyme solution for PDE assay; tissue Oriental Yeast (animals); host or cells: canine lung, soluble fraction, DEAE Sepharose fractions
Experimental: In the same manner as in (1-4) above, the supernatant obtained from the homogenate of canine lung tissue was applied to chromatography under FLPC system, to collect eluted fractions of 2 ml each.
Subsequently, the eluted fractions were used as an enzyme solution for PDE assay, and cGMP-hydrolyzing activity was measured for respective fractions, in the presence or absence of E4021, the PDE5 specific inhibitor.
Further, for examining contamination of PDE1, which is adjacently eluted, cGMP-hydrolyzing PDE activity of the respective fractions were measured in the same assay buffer containing EGTA (final concentration of 1 mM) [or calcium chloride (final concentration of 2 mM) and calmodulin (40 units/ml)].
These fractions were collected and glycerol was added thereto to become 50%, and the mixture was stored at −20° C. These were used as a PDE5 enzyme solution for PDE assay.

PDE4 = experiment: PDE assay, PDE4 enzyme solution from dog lung; type: biochemical, mixed-breed dog
Experimental: These fractions were collected and glycerol was added thereto to become 50%, and the mixture was stored at −20° C.

PDE activity of PDE5 enzyme solution in the presence of inhibitor (PDE5): inhibited
SMILES: CCCc1nn(C)c2c(=O)[nH]c(-c3cc(S(=O)(=O)N4CCN(C)CC4)ccc3OCC)nc12 [sildenafil, reference compound]

PDE activity of PDE4 enzyme solution in the presence of inhibitor (PDE4): inhibited
SMILES: COc1ccc(C2CNC(=O)C2)cc1OC1CCCC1 (centres unmarked) [rolipram, reference compound]

The remaining lines, values behind:

SMILES: CCCCCC[C@@H]([C@@H](C)O)n1cnc2c(N)ncnc21 (racemic) [EHNA, erythro-9-(2-hydroxy-3-nonyl)adenine, reference compound]
PDE activity of PDE2 enzyme solution in the presence of inhibitor (PDE2): inhibited

SMILES: Cc1[nH]c(=O)c(C#N)cc1-c1ccncc1 [milrinone]
PDE activity of PDE3 enzyme solution in the presence of inhibitor (PDE3): inhibited

SMILES: O=C(O)C1CCN(c2nc(NCc3ccc4c(c3)OCO4)c3cc(Cl)ccc3n2)CC1 [Compound E4021, reference compound]
cGMP-hydrolyzing activity of PDE1 containing fractions in the presence of inhibitor (PDE1): not inhibited

— patent US8338420B1, “Treatment of Parkinson's disease and enhancement of dopamine signal using PDE 10 inhibitor” (Mitsubishi Tanabe Pharma Corporation, priority 2002, dated 2012)
